According to patent US9725449B2, “Tricyclic compounds as anticancer agents” (BRISTOL-MYERS SQUIBB COMPANY, priority 2015, dated 2017):

Target: BRD4 (Homo sapiens, UniProt O60885)
Experiment: Time resolved fluorescence resonance energy transfer (TR-FRET) binding assay, bromodomain BRD4
Details: one of the FRET assays described; read-out: FRET BRD4 IC50

Row | SMILES | IC50 [nM]
1 | Cc1nnn(C)c1-c1cnc2c3cc(C(C)(C)O)cnc3n([C@H](c3ccccc3)C3CCOCC3)c2c1 [Example 350, 2-[5-(Dimethyl-1H-1,2,3-triazol-5-yl)-8-[(S)-oxan-4-yl(phenyl)methyl]-3,8,10-triazatricyclo[7.4.0.0^2,^7]trideca-1(13),2(7),3,5,9,11-hexaen-12-yl]propan-2-ol] | < 10
2 | Cc1noc(C)c1-c1cnc2c3cc(C(C)(C)O)cnc3n([C@H](c3ccccc3)C3CCOCC3)c2c1 [Example 351, 2-[5-(Dimethyl-1,2-oxazol-4-yl)-8-[(S)-oxan-4-yl(phenyl)methyl]-3,8,10-triazatricyclo[7.4.0.0^2,^7]trideca-1(13),2(7),3,5,9,11-hexaen-12-yl]propan-2-ol] | < 1500
3 | [2H]C([2H])([2H])c1nnn(C)c1-c1cnc2c3cc(C(C)(C)O)cnc3n([C@H](c3ncccc3F)C3CCOCC3)c2c1 [Example 352, 2-{8-[(S)-(3-Fluoropyridin-2-yl)(oxan-4-yl)methyl]-5-[4-(^2H3)methyl-1-methyl-1H-1,2,3-triazol-5-yl]-3,8,10-triazatricyclo[7.4.0.0^2,^7]trideca-1(13),2(7),3,5,9,11-hexaen-12-yl}propan-2-ol] | < 10
4 | [2H]C([2H])([2H])c1nnn(C)c1-c1cnc2c3cnc(C(C)(C)O)cc3n(C(CCC)c3ncccc3F)c2c1 (stereo not shown) [Example 359, 2-{8-[1-(3-Fluoropyridin-2-yl)butyl]-5-[4-(^2H3)methyl-1-methyl-1H-1,2,3-triazol-5-yl]-3,8,12-triazatricyclo[7.4.0.0^2,^7]trideca-1(13),2(7),3,5,9,11-hexaen-11-yl}propan-2-ol] | < 10
5 | [2H]C([2H])([2H])c1nnn(C)c1-c1cnc2c3cnc(C(C)(C)O)cc3n(C(CCC)c3ncccc3F)c2c1 (stereo not shown) [Example 360, 2-{8-[1-(3-Fluoropyridin-2-yl)butyl]-5-[4-(^2H3)methyl-1-methyl-1H-1,2,3-triazol-5-yl]-3,8,12-triazatricyclo[7.4.0.0^2,^7]trideca-1(13),2(7),3,5,9,11-hexaen-11-yl}propan-2-ol] | < 10
6 | [2H]C([2H])([2H])c1nnn(C)c1-c1nc2c(cc1F)c1ncc(C(C)(C)O)cc1n2[C@H](c1ccccc1)C1CCOCC1 [Example 361, 2-{12-Fluoro-11-[4-(^2H3)methyl-1-methyl-1H-1,2,3-triazol-5-yl]-8-[(S)-oxan-4-yl(phenyl)methyl]-3,8,10-triazatricyclo[7.4.0.0^2,^7]trideca-1(9),2(7),3,5,10,12-hexaen-5-yl}propan-2-ol] | < 10
7 | [2H]C([2H])([2H])c1nnn(C)c1-c1cc2c(cn1)c1ncc(C(C)(C)O)cc1n2[C@H](c1ccccc1)C1CCOCC1 [Example 364, 2-{11-[4-(^2H3)Methyl-1-methyl-1H-1,2,3-triazol-5-yl]-8-[(S)-(oxan-4-yl)(phenyl)methyl]-3,8,12-triazatricyclo[7.4.0.0^2,^7]trideca-1(9),2,4,6,10,12-hexaen-5-yl}propan-2-ol] | < 10
8 | Cc1cc([C@H](C2CCOCC2)n2c3cc(-c4c(C)nnn4C)ncc3c3ncc(C(C)(C)O)cc32)no1 [Example 365] | < 10
9 | Cc1nnn(C)c1-c1cc2c(cn1)c1ncc(C(C)(C)O)cc1n2[C@H](c1ccccc1)C1CCOCC1 [Example 368] | < 10
10 | Cc1noc(C)c1-c1cc2c(cn1)c1ncc(C(C)(C)O)cc1n2[C@H](c1ccccc1)C1CCOCC1 [Example 369] | < 10
11 | CCCC(c1ccccc1)n1c2cc(-c3c(C)nnn3C)ncc2c2ncc(C(C)(C)O)cc21 (stereo not shown) [Example 372] | < 1500
12 | CC(=O)c1cnc2c3ccc(-c4c(C)nnn4C)nc3n([C@@H](c3ccccc3)C3CCOCC3)c2c1 [Example 377, 1-[11-(Dimethyl-1H-1,2,3-triazol-5-yl)-8-[(R)-oxan-4-yl(phenyl)methyl]-3,8,10-triazatricyclo[7.4.0.0^2,^7]trideca-1(9),2(7),3,5,10,12-hexaen-5-yl]ethan-1-one] | < 10
13 | Cc1nnn(C)c1-c1ccc2c3ncc(C(C)(C)O)cc3n([C@@H](c3ccccc3)C3CCOCC3)c2n1 [Example 378, 2-[11-(Dimethyl-1H-1,2,3-triazol-5-yl)-8-[(R)-oxan-4-yl(phenyl)methyl]-3,8,10-triazatricyclo[7.4.0.0^2,^7]trideca-1(9),2(7),3,5,10,12-hexaen-5-yl]propan-2-ol] | < 10
14 | CC(=O)c1cnc2c3ccc(-c4c(C)nnn4C)nc3n([C@H](c3ccccc3)C3CCOCC3)c2c1 [Example 379] | < 1
15 | Cc1nnn(C)c1-c1ccc2c3ncc(C(C)(C)O)cc3n([C@H](c3ccccc3)C3CCOCC3)c2n1 [Example 380] | < 10
16 | Cc1nnn(C)c1-c1ccc2c3ncc(N4CCS(=O)(=O)CC4)cc3n([C@H](c3ccccc3)C3CCOCC3)c2n1 [Example 381, 4-[11-(Dimethyl-1H-1,2,3-triazol-5-yl)-8-[(S)-oxan-4-yl(phenyl)methyl]-3,8,10-triazatricyclo[7.4.0.0^2,^7]trideca-1(9),2(7),3,5,10,12-hexaen-5-yl]-1λ^6,4-thiomorpholine-1,1-dione] | < 10
